Data from patent publication US4504486A (priority 1982, dated 1985).

Assays:
Erisiphe polygoni = assay: Bean Powdery Mildew (seedling bean plants); assay type: in vivo; settings: 240 h; 250 ppm spray; bean seedlings, inoculated 1 day later; relative to untreated check; read-out: % Control BPM (Bean Powdery Mildew)
Method: The compounds of the invention were tested for the control of the Bean Powdery Mildew organism Erisiphe polygoni. Seedling bean plants were sprayed with a 250 ppm solution of the test compound in acetone, water and a nonionic emulsifier. The sprayed plants were then inoculated 1 day later with organism. The plants were maintained for 10 days at temperatures of 68° F. at night with daytime temperatures of 72° to 80° F.; relative humidity was maintained at 40% to 60%. The percent disease control provided by a given test compound was based on the percent disease reduction relative to the untreated check plants.

Plasmopara viticola = assay: Grape Downy Mildew Control (detached grape leaves); assay type: in vivo; settings: in Vitis vinifera, 250 ppm spray, disease reduction relative to untreated check, read-out: % Control GDM (Grape Downy Mildew)
Method: Grape Downy Mildew Control
The compounds of the invention were tested for the control of the Grape Downy Mildew Control organism Plasmopara viticola. Detached leaves, between 70 and 85 mm in diameter, of 7-week old Vitis vinifera cultivar Emperor grape seedlings were used as hosts. The leaves were sprayed with a 250 ppm solution of the test compound in acetone. The sprayed leaves were dried, inoculated with a spore suspension of the organism, placed in a humid environmental chamber and incubated at 66° to 68° F. and about 100% relative humidity. After incubation for 2 days, the plants were then held in a greenhouse 7 to 9 days; then the amount of disease control was determined. The percent disease control provided by a given test compound was based on the percent disease reduction relative to untreated check plants.

Rhizoctania solani = assay: Mycelial Inhibition, Rhizoctania solani; assay type: cell-based; settings: Standard DIFOLATAN; 500 ppm, 25° C., 24 hours; 0 = more than 1.6 micrograms/cm^2 required for 99% control
Method: (§1) The compounds of the present invention were evaluated for in-vitro fungicidal effectiveness by means of a Mycelial Inhibition test. This test is designed to measure the fungitoxic activity of fungicidal chemicals in terms of their degree of inhibition of mycelium growth. Each compound to be tested was dissolved in acetone to 500 ppm concentration. Paper strips were infused with the particular mycelium growth by covering the paper with a potato dextrose broth culture of mycelial suspension. The papers were then placed on potato dextrose agar plates and sprayed by means of a microsprayer with the fungicidal solution. The treated paper strips were incubated at 25° C. and the data is taken after 24 hours. Fungicidal activities are measured by a zone of inhibited mycelial growth from the center of the paper strip. The effectiveness of the compounds tested for fungicidal activity is reported in Table II (a) for those compounds which were effective in inhibiting mycelial growth.
(§2) The activity is reported in terms of [formula]
(§3) When more than 1.6 micrograms/cm^2 for 99% control of the fungus for the test compound is required, the activity is reported as 0.

[1] = test system: Alternaria solani conidia; assay: Tomato Early Blight (tomato seedlings); assay type: in vivo; settings: 250 ppm spray, inoculated 1 day later, relative to untreated check
Method: Compounds of the invention were tested for the control of the Tomato Early Blight organism, Alternaria solani conidia. Tomato (variety Bonny Best) seedlings of 6 to 7 weeks old were used. The tomato plants were sprayed with a 250 ppm solution of the test compound in an acetone-and-water solution containing a small amount of a nonionic emulsifier. The sprayed plants were inoculated 1 day later with the organism, placed in the environmental chamber and incubated at 66° to 68° F. and 100% relative humidity for 24 hours. Following the incubation, the plants were maintained in a greenhouse for about 12 days. Percent diseases control was based on the percent disease development on untreated check plants.

Phytophthora infestans = assay: whole plant or invertebrate; assay type: in vivo; settings: in Solanum lycopersicum, 168 h, read-out: % Control TLB (Tomato Late Blight)
Botrytis cinerea = assay: Mycelial Inhibition, Botrytis cinerea; assay type: cell-based; settings: Standard DIFOLATAN; 500 ppm, 25° C., 24 hours; 0 = more than 1.6 micrograms/cm^2 required for 99% control
Method: as §1, §2, §3

Pythium ultimum = assay: Mycelial Inhibition, Pythium ultimum; assay type: cell-based; settings: Standard DIFOLATAN; 500 ppm, 25° C., 24 hours; 0 = more than 1.6 micrograms/cm^2 required for 99% control
Method: as §1, §2, §3

Uronyces phaseoli tipica = assay: Leaf Rust / Bean Rust (pinto beans); assay type: in vivo; settings: 336 h, 250 ppm spray, about 14 days, relative to untreated check, read-out: % Control BR (Bean Rust)
Method: The Leaf Rust test was made using pinto beans. The pathogen was Uronyces phaseoli tipica. The pinto bean plants were sprayed with a 250 ppm solution of the test compound in an acetone-water mixture containing a nonionic emulsifier. The treated plants were inoculated thereafter with the pathogen and then incubated in an environmental chamber for approximately 20 hours at 100% relative humidity and a temperature of 68° to 70° F. The plants were then removed from the chamber, allowed to dry, and then maintained in a greenhouse at a 60% to 80% relative humidity. The rate of infection on the leaves was made after about 14 days. The percent disease control provided by a given test compound was based on the percent disease reduction relative to untreated check plants.

Septoria apii = assay type: in vivo; settings: 250 ppm spray; celery plants; relative to untreated check
Piricularia oryzae = assay type: in vivo; settings: 625 ppm spray; rice seedlings, inoculated 1 day later; relative to untreated check

| Structure (SMILES) | pest or weed control at 250 ppm (Erisiphe polygoni) | pest or weed control at 250 ppm (Plasmopara viticola) | Mycelial inhibition, Rhizoc. (% Standard) (Rhizoctania solani) | % Control TEB (Tomato Early Blight) [1] | pest or weed control at 250 ppm (Phytophthora infestans) | Mycelial inhibition, Botrytis (% Standard) (Botrytis cinerea) | Mycelial inhibition, Pythium (% Standard) (Pythium ultimum) | pest or weed control at 250 ppm (Uronyces phaseoli tipica) | % Control CLB (Celery Late Blight) (Septoria apii) | % Control Rice Blast (Piricularia oryzae) |
| --- | --- | --- | --- | --- | --- | --- | --- | --- | --- | --- |
| Cc1cc(=O)on1C(=O)c1ccc([N+](=O)[O-])cc1 [Compound 1, 3-methyl-2-(4'-nitrobenzoyl)-3-isoxazolin-5-one] | 0% | 21% | 0 % Standard | 0% | 0% | 0 % Standard | 0 % Standard | 0% | – | – |
| Cc1cc(=O)on1C(=O)c1ccc(Cl)cc1Cl [Compound 2, 3-methyl-2-(2',4'-dichlorobenzoyl)-3-isoxazolin-5-one] | 21% | 14% | 0 % Standard | 92% | 97% | 34 % Standard | 0 % Standard | 0% | 99% | – |
| CCCc1cc(=O)on1C(=O)c1ccc(Cl)cc1Cl [Compound 3, 3-n-propyl-2-(2',4'-dichlorobenzoyl)-3-isoxazolin-5-one] | 0% | 0% | 0 % Standard | – | 35% | 0 % Standard | – | 0% | 0% | 44% |
| Cc1cc(=O)on1C(=O)c1ccccc1 [Compound 4] | 0% | 6% | 0 % Standard | – | 50% | 0 % Standard | – | 0% | 0% | 0% |
| CC(C)c1cc(=O)on1C(=O)c1ccc(Cl)cc1Cl [Compound 5] | 0% | 3% | 23 % Standard | – | 69% | 0 % Standard | – | 0% | 0% | 83% |
| Cc1cc(=O)on1C(=O)c1ccc(Cl)cc1 [Compound 6] | 0% | 16% | 33 % Standard | 0% | 50% | 6 % Standard | 12 % Standard | 0% | 0% | 0% |
| Cc1cc(=O)on1C(=O)c1ccc([N+](=O)[O-])cc1Cl [Compound 7] | 0% | 19% | 0 % Standard | 0% | 31% | 0 % Standard | 0 % Standard | 0% | 44% | 50% |
| Cc1cc(=O)on1C(=O)c1ccc(Cl)cc1[N+](=O)[O-] [Compound 8] | 0% | 6% | 0 % Standard | 56% | 56% | 15 % Standard | 0 % Standard | 0% | 11% | 0% |
